Laboratory results reported in US8835134B2, “Cycloastragenol monoglucoside, preparation, pharmaceutical composition and application thereof” (Tianjin Institute of Pharmaceutical Research, priority 2007, dated 2014).

Tested on: anesthetized open-chest dogs
Experiment: Hemodynamics of anesthetized open-chest dogs, intravenous infusion
Type: in vivo, mongrel dogs
Conditions: 0.3 mg/kg iv
Procedure: The animals were anesthetized by intravenous injection of 30 mg/kg sodium pentobarbital, tracheally intubated, and mechanically ventilated with positive air pressure. Left thoracotomy was performed through the fourth intercostal space and the heart was suspended in a pericardial cradle, the aortic root was isolated and a probe of blood flow meter (12 or 14 mm in diameter) was fixed to measure the aortic blood flow as a representation of cardiac output (CO), the circumflex branch of left coronary artery was isolated and a probe of blood flow meter (2 or 2.5 mm in diameter) was fixed to measure the coronary blood flow (CBF). A polyethylene catheter filled with heparin physiological saline was inserted through cardiac apex into the left ventricle to measure the left ventricular pressure (LVP) and left ventricular end-diastolic pressure (LVEDP), Peak positive and peak negative first derivatives of the LVP (+ LVdp/dt and − LVdp/dt) were calculated with the Acknowledge software. The systolic blood pressure (SBP), diastolic blood pressure (DBP) and mean arterial pressure (MAP) were measured by polyethylene catheter via the femoral artery, ECG □ was measured by a AC-601G ECG amplifier. The above-mentioned analog signal was input into a data acquisition workstation (MP100, BIOPAC Systems, USA) to a computer running Acknowledge (version 3.7.1).
After surgery, various indexes before administration were recorded until the indexes were stable, and then intravenous infusion administration was conducted. Thirty dogs were divided into five groups (six dogs in each group), the experiment groups were given 0.15, 0.3, 0.6 mg/kg of ASP-[…] respectively, the normal control group was given 1 ml/kg of solvent, and the positive control group was given 0.3 mg/kg of astragaloside IV. The delivery volumes were 15 ml for each dog was and the delivery velocity was 1 ml/min. The indexes were recorded at 5, 10, 15, 20, 30, 45, 60, 90 and 120 mins after drug administration. At the end of experiment, the hearts were excised and weighted. The myocardial blood flow for per hectogram (CF), coronary resistance (CR), cardiac index (CI), left ventricular work (LVW) and total peripheral resistance (TPR) were calculated according to the following formulae: CF=CBF×[…]/heart weight CR=MAP/CF CI=CO/0.11×(body weight)^2/3 LVW=CO×(MAP−5)×1.052×0.0136 TPR=MAP×79.92/CO
Data are expressed as mean±SD ( x±s), the paired t-test was used to compare the significance between before and after administration, the unpaired t-test was adopted for comparison between groups.

`CC(C)(O)[C@@H]1CC[C@](C)([C@H]2[C@@H](O)C[C@@]3(C)[C@@H]4C[C@H](O[C@@H]5O[C@H](CO)[C@@H](O)[C@H](O)[C@H]5O)[C@H]5C(C)(C)[C@@H](O[C@@H]6OC[C@@H](O)[C@H](O)[C@H]6O)CC[C@@]56C[C@@]46CC[C@]23C)O1` [astragaloside IV, reference compound] was tested, and the “+LVdp/dtmax” value was “significantly increased”, the “CO, CI and TPR” value was “no significant effect” and the LVEDP was “significantly decreased”. The “LVSP, LVW and −LVdp/dtmax” value was “no significant change”, the CF (5 min after administration) was 57.2 ± 14.0 ml/min/100 g and the “CF change vs before administration” value (5 min after administration) was “(0.2 ± 3.5) ml/min/100 g”. The CI (5 min after administration) was 2.20 ± 0.59 L/min/m^2, the “CI change vs before administration” value (5 min after administration) was “(0.06 ± 0.10) L/min/m^2” and the CO (5 min after administration) was 1.23 ± 0.36 L/min. The “CO change vs before administration” value (5 min after administration) was “(0.03 ± 0.05) L/min”, the CR (5 min after administration) was 1.36 ± 0.47 mmHg/ml/min/100 g and the “CR change vs before administration” value (5 min after administration) was “(−0.05 ± 0.07) mmHg/ml/min/100 g”. For the same molecule, the LVEDP (5 min after administration) was 1.6 ± 1.4 mmHg, the “LVEDP change vs before administration” value (5 min after administration) was “(−0.80 ± 0.81) mmHg” and the LVP (5 min after administration) was 104 ± 10 mmHg. For the same molecule, the “LVP change vs before administration” value (5 min after administration) was “(1.1 ± 6.5) mmHg”, the LVW (5 min after administration) was 1.22 ± 0.47 kg · m and the “LVW change vs before administration” value (5 min after administration) was “(0.01 ± 0.05) kg · m”. For the same molecule, the TPR (5 min after administration) was 5046 ± 1572 dyn · s/cm^5, the “TPR change vs before administration” value (5 min after administration) was “(−178 ± 384) dyn · s/cm^5” and the dp/dt (5 min after administration) was 1082 ± 176 mmHg/s. The “dp/dt change vs before administration” value (5 min after administration) was “(27 ± 75) mmHg/s”, the “−dp/dt” value (5 min after administration) was −878 ± 179 mmHg/s and the “−dp/dt change vs before administration” value (5 min after administration) was “(−43 ± 104) mmHg/s”. The CF (10 min after administration) was 59.0 ± 20.5 ml/min/100 g, the “CF change vs before administration” value (10 min after administration) was “(2.0 ± 6.5) ml/min/100 g” and the CI (10 min after administration) was 2.21 ± 0.52 L/min/m^2. For the same molecule, the “CI change vs before administration” value (10 min after administration) was “(0.07 ± 0.08) L/min/m^2”, the CO (10 min after administration) was 1.24 ± 0.32 L/min and the “CO change vs before administration” value (10 min after administration) was “(0.04 ± 0.05) L/min”. The CR (10 min after administration) was 1.39 ± 0.45 mmHg/ml/min/100 g, the “CR change vs before administration” value (10 min after administration) was “(−0.01 ± 0.12) mmHg/ml/min/100 g” and the LVEDP (10 min after administration) was 1.7 ± 1.3 mmHg. For the same molecule, the “LVEDP change vs before administration” value (10 min after administration) was “(−0.73 ± 0.54) mmHg”, the LVP (10 min after administration) was 105 ± 10 mmHg and the “LVP change vs before administration” value (10 min after administration) was “(2.5 ± 11.7) mmHg”. For the same molecule, the LVW (10 min after administration) was 1.26 ± 0.39 kg · m, the “LVW change vs before administration” value (10 min after administration) was “(0.05 ± 0.13) kg · m” and the TPR (10 min after administration) was 5162 ± 1495 dyn · s/cm^5. For the same molecule, the “TPR change vs before administration” value (10 min after administration) was “(−62 ± 517) dyn · s/cm^5”, the dp/dt (10 min after administration) was 1141 ± 136 mmHg/s and the “dp/dt change vs before administration” value (10 min after administration) was “(86 ± 61) mmHg/s”. The “−dp/dt” value (10 min after administration) was −882 ± 163 mmHg/s, the “−dp/dt change vs before administration” value (10 min after administration) was “(−46 ± 118) mmHg/s” and the CF (15 min after administration) was 57.0 ± 22.3 ml/min/100 g. The “CF change vs before administration” value (15 min after administration) was “(0.0 ± 7.2) ml/min/100 g”, the CI (15 min after administration) was 2.16 ± 0.51 L/min/m^2 and the “CI change vs before administration” value (15 min after administration) was “(0.02 ± 0.07) L/min/m^2”. The CO (15 min after administration) was 1.21 ± 0.30 L/min, the “CO change vs before administration” value (15 min after administration) was “(0.01 ± 0.04) L/min” and the CR (15 min after administration) was 1.46 ± 0.50 mmHg/ml/min/100 g. For the same molecule, the “CR change vs before administration” value (15 min after administration) was “(0.06 ± 0.15) mmHg/ml/min/100 g”, the LVEDP (15 min after administration) was 1.0 ± 1.2 mmHg and the “LVEDP change vs before administration” value (15 min after administration) was “(−1.40 ± 0.54) mmHg”. For the same molecule, the LVP (15 min after administration) was 103 ± 12 mmHg, the “LVP change vs before administration” value (15 min after administration) was “(−0.3 ± 12.2) mmHg” and the LVW (15 min after administration) was 1.22 ± 0.35 kg · m. The “LVW change vs before administration” value (15 min after administration) was “(0.01 ± 0.16) kg · m”, the TPR (15 min after administration) was 5319 ± 1695 dyn · s/cm^5 and the “TPR change vs before administration” value (15 min after administration) was “(95 ± 662) dyn · s/cm^5”. The dp/dt (15 min after administration) was 1167 ± 157 mmHg/s, the “dp/dt change vs before administration” value (15 min after administration) was “(112 ± 31) mmHg/s” and the “−dp/dt” value (15 min after administration) was −847 ± 141 mmHg/s. The “−dp/dt change vs before administration” value (15 min after administration) was “(−12 ± 124) mmHg/s”, the CF (20 min after administration) was 59.1 ± 21.2 ml/min/100 g and the “CF change vs before administration” value (20 min after administration) was “(2.1 ± 7.3) ml/min/100 g”. For the same molecule, the CI (20 min after administration) was 2.15 ± 0.44 L/min/m^2, the “CI change vs before administration” value (20 min after administration) was “(0.00 ± 0.10) L/min/m^2” and the CO (20 min after administration) was 1.20 ± 0.27 L/min. For the same molecule, the “CO change vs before administration” value (20 min after administration) was “(0.00 ± 0.06) L/min”, the CR (20 min after administration) was 1.37 ± 0.42 mmHg/ml/min/100 g and the “CR change vs before administration” value (20 min after administration) was “(−0.03 ± 0.16) mmHg/ml/min/100 g”. For the same molecule, the LVEDP (20 min after administration) was 1.0 ± 1.1 mmHg, the “LVEDP change vs before administration” value (20 min after administration) was “(−1.46 ± 0.68) mmHg” and the LVP (20 min after administration) was 104 ± 11 mmHg. For the same molecule, the “LVP change vs before administration” value (20 min after administration) was “(1.2 ± 16.2) mmHg”, the LVW (20 min after administration) was 1.2 ± 0.31 kg · m and the “LVW change vs before administration” value (20 min after administration) was “(−0.01 ± 0.22) kg · m”. The TPR (20 min after administration) was 5203 ± 1464 dyn · s/cm^5, the “TPR change vs before administration” value (20 min after administration) was “(−21 ± 735) dyn · s/cm^5” and the dp/dt (20 min after administration) was 1165 ± 112 mmHg/s. The “dp/dt change vs before administration” value (20 min after administration) was “(110 ± 67) mmHg/s”, the “−dp/dt” value (20 min after administration) was −875 ± 105 mmHg/s and the “−dp/dt change vs before administration” value (20 min after administration) was “(−39 ± 142) mmHg/s”. The CF (30 min after administration) was 57.8 ± 16.6 ml/min/100 g, the “CF change vs before administration” value (30 min after administration) was “(0.8 ± 3.2) ml/min/100 g” and the CI (30 min after administration) was 2.08 ± 0.48 L/min/m^2. The “CI change vs before administration” value (30 min after administration) was “(−0.07 ± 0.17 ^ L/min/m^2”, the CO (30 min after administration) was 1.16 ± 0.29 L/min and the “CO change vs before administration” value (30 min after administration) was “(−0.04 ± 0.09) L/min”. For the same molecule, the CR (30 min after administration) was 1.41 ± 0.47 mmHg/ml/min/100 g, the “CR change vs before administration” value (30 min after administration) was “(0.00 ± 0.13) mmHg/ml/min/100 g” and the LVEDP (30 min after administration) was 1.0 ± 1.4 mmHg. For the same molecule, the “LVEDP change vs before administration” value (30 min after administration) was “(−1.44 ± 0.90) mmHg”, the LVP (30 min after administration) was 102 ± 11 mmHg and the “LVP change vs before administration” value (30 min after administration) was “(−0.7 ± 13.7) mmHg”. For the same molecule, the LVW (30 min after administration) was 1.19 ± 0.40 kg · m and the “LVW change vs before administration” value (30 min after administration) was “(−0.02 ± 0.15) kg · m”.
